The text below walks through data of PubChem BioAssay (NCI).

“And” between values parts separate entries of the source, which are not always exact repeats. Equal values may be shown once.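 Exposure lasted 48 hours, with cells grown in 96-well plates and compounds tested at five concentrations. GI50 is the concentration that inhibits growth by half. TGI: total growth inhibition.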 A value given as a limit tells only on which side of the number the result lay.

The subject of this assay is MDA-MB-468 breast. The assay is described as follows: NCI anticancer screen, dose series, 48 h.
Consider `CCN1CCN(CC(=O)Nc2nc3ccc(NCc4ccc(C)cc4)cc3s2)CC1`, for which the GI50 is 2030 nM and the TGI amounted to 8960 nM.

Consider `COc1cc2nc(Cl)nc(Nc3cccc(C4=Nc5c(N)nc(N)nc5NC(c5ccc(Cl)cc5)C4)c3)c2cc1OC` (stereo not drawn), for which the GI50 is 1730 nM and the TGI amounted to 3490 nM.

With `O=C(N/N=C/c1ccncc1)c1ccc(C(F)(F)F)nc1Nc1cccc(C(F)(F)F)c1`, the GI50 is 1350 nM and the TGI turned out to be 4390 nM.

For the molecule `Cc1ccc2c(n1)C(=O)C(Cl)=C(Nc1ccc(N3CCN(C)CC3)cc1)C2=O`, the GI50 was 1510 nM and the TGI turned out to be 3130 nM.

`CC(=O)Nc1c(I)c(C(=O)O)c(I)c(N(C)C(C)=O)c1I`: the GI50 is above 100000 nM and the TGI is above 100000 nM.

On to `CCOC(=O)C1=C(C)NC(C)=C(C(=O)OCC)C1c1cc(Br)c(O)c(OC)c1`, for which the GI50 is 2880 nM and the TGI turned out to be 14400 nM.

`c1cc2ccc3cc2cc1CNCCOCCNCc1ccc2ccc(cc2c1)CNCCOCCNC3`: the GI50 is above 100000 nM and the TGI is above 100000 nM.

For the molecule `C/C(=C\CCc1ccsc1)CC/C=C(\C)CCCN1CCN(CCO)CC1`, the GI50 is 1610 nM and the TGI came out at 4100 nM.

Regarding `Cc1cc(Br)c2nsnc2c1[N+](=O)[O-]`, the GI50 is 1450 nM and the TGI was determined as 3240 nM.

As for `Nc1cccc2c1CN(C1CCC(=O)NC1=O)C2=O` (stereo not drawn), the GI50 was above 100000 nM and the TGI is above 100000 nM.

Take `O=c1c(-c2ccc3c(c2)OCO3)coc2c(CO)c(O)ccc12`: the GI50 is 1850 nM and the TGI was determined as 5370 nM.

Consider `Cc1cc(N2CCN(C)CC2)nc(N(CCNc2ccnc3cc(Cl)ccc23)Cc2ccco2)n1`, for which the GI50 was 2070 nM and the TGI was found to be 6100 nM.

Turning to `NS(=O)(=O)c1cccc(-c2cc3ccncc3cc2OCc2ccccc2)c1`, the GI50 was 4080 nM and the TGI was determined as 16000 nM.

Turning to `O=C1c2cccc3cccc(c23)C(=O)N1CC#Cc1ccc2c3c(cccc13)C(=O)N(CCN1CCNCC1)C2=O`, the GI50 is 2190 nM and the TGI came out at 5300 nM.

For the molecule `Oc1[nH]c2ccc(Cl)cc2c1/C=c1/ccc2c(c1)N=C(c1ccc(C(F)(F)F)cc1)N=2`, the GI50 was 1940 nM and the TGI was found to be 4570 nM.

Consider `O=C1NC(=O)C(N2CCc3ccccc32)=C1c1ccc(Cl)cc1`, for which the GI50 is above 25000 nM and the TGI is above 25000 nM.

`O=S1CCN(Cc2ccc(-c3ccc4ncnc(Nc5ccc(OCc6ccccc6)c(F)c5)c4c3)o2)CC1`: the GI50 is 130 nM and the TGI worked out at 1190 nM.

With `CCCCCCCCCCCCNC(=O)[C@H]1CSC(c2cc(Br)cs2)N1` (stereo partly drawn), the GI50 was 890 nM and the TGI was 1740 nM.

In the case of `N#Cc1ccc(N2Cc3cc(Cl)ccc3OC3=C2C(=O)N(Cc2ccc(F)cc2)C3=O)cc1`, the GI50 was 595 nM and the TGI was found to be 1340 nM.

Turning to `COC(=O)c1c2c(c(C)[n+]([O-])c1C)C(=O)C=C(NCc1ccc(Br)cc1)C2=O`, the GI50 is 207 nM and the TGI stood at 816 nM.

In the case of `Cc1ccn2c(-c3csc(Nc4cccc(O)c4)n3)c(C)nc2c1`, the GI50 was 1770 nM and the TGI was found to be 7910 nM.

For the molecule `Cc1ccc(-n2nnc3c(sc4ccccc43)c2=O)cc1`, the GI50 was 18500 nM and the TGI is above 100000 nM.

Turning to `O=C1c2ccccc2C(=O)c2c(NCCNCCO)ccc(NCCNCCO)c21`, the GI50 is 904 nM and 1300 nM and 1660 nM; the TGI is 2450 nM and 2920 nM and 3840 nM.

In the case of `NC(Cc1ccc(O)cc1)C(=O)N/N=C/c1ccc(N(CCCl)CCCl)cc1` (stereo not drawn), the GI50 was 958 nM and the TGI amounted to 10500 nM.

In the case of `CCc1ccc(Oc2nccc(-c3c(-c4ccc(F)cc4)ncn3C3CCNCC3)n2)cc1`, the GI50 is 3710 nM and the TGI is 7590 nM.

With `Cc1ccc(NC(C(=O)c2ccccc2)c2ccccc2)cc1` (stereo not drawn), the GI50 was 2180 nM and the TGI came to 8850 nM.

Take `Nc1ncnc2c1nc(N)n2C1OC(CO)C(O)C1O` (stereo not drawn): the GI50 is 220 nM and the TGI came to 1150 nM.

Regarding `Cc1cc(NS(=O)(=O)c2ccc(NC(=O)COc3ccc(-c4cc5ccccc5[nH]4)cc3)cc2)no1`, the GI50 is 1610 nM and the TGI was determined as 3520 nM.

Regarding `Cc1ccc(C2NC(=S)N3C(c4ccc(C)cc4)NC(=S)N23)cc1` (stereo not drawn), the GI50 was 4620 nM and the TGI worked out at 18900 nM.

`O=C(Nc1ccc2cc3ccc(NC(=O)N4CCCCCC4)cc3nc2c1)N1CCCCCC1`: the GI50 is 1560 nM and the TGI was 3030 nM.

On to `COc1cc(OC)cc(C(=O)Nc2cccc(C#Cc3cccc4[nH]nc(N)c34)c2)c1`, for which the GI50 is 558 nM and the TGI was found to be 3920 nM.

Regarding `COc1ccc(C2=NNC(c3cc(Cc4ccc(O)c(C5CC(c6ccc(OC)cc6)=NN5)c4)ccc3O)C2)cc1` (stereo not drawn), the GI50 is 2970 nM and the TGI is 22900 nM.

Turning to `CCOC(=O)c1c(C(F)(F)F)n([O-])c2ccc(Cl)cc2[n+]1=O`, the GI50 was 1790 nM and the TGI was 3920 nM.

For the molecule `O=[N+]([O-])c1ccc(Oc2cccc(C(F)(F)F)c2)c([N+](=O)[O-])c1`, the GI50 was 1640 nM and the TGI amounted to 3100 nM.

On to `COc1ccccc1N(C(C)=O)C1=C(Cl)C(=O)c2ccccc2C1=O`, for which the GI50 was 487 nM and the TGI came out at 1940 nM.

With `C[C@@H](Oc1cc(-c2cnn(C3CC4(CNC4)C3)c2)cnc1N)c1c(Cl)ccc(F)c1Cl`, the GI50 is 2460 nM and the TGI stood at 9350 nM.

Turning to `O=c1[nH]cc(CO)c(=O)[nH]1`, the GI50 was above 100000 nM and the TGI was above 100000 nM.

`CS(=O)/C(C#N)=C\C=C\c1cccc(Cl)c1` (stereo not drawn): the GI50 is 1270 nM and the TGI was determined as 4280 nM.

Turning to `CCCCCCCCn1ccc2cc(NC(=O)Cn3cc(CN4CCC(C)CC4)nn3)ccc21`, the GI50 is 1620 nM and the TGI stood at 3290 nM.

As to `O=C(NC1CCNCC1)c1[nH]ncc1NC(=O)c1c(Cl)cccc1Cl`, the GI50 is 191 nM and 209 nM; the TGI was 434 nM and 525 nM.

`O=[N+]([O-])c1ccc(N/N=C/c2ccccc2O)nc1`: the GI50 is 3120 nM and the TGI was 29900 nM.

For the molecule `COc1ccc(Oc2nc(Nc3ccc(N4CCOCC4)cc3)ncc2NC(=O)Nc2cc(OC)cc(OC)c2)cc1`, the GI50 is 3390 nM and the TGI came out at 11700 nM.

`C=C1C(=O)O[C@H]2[C@H]1CC/C(COC(=O)c1cccc3ccccc13)=C\CC[C@@]1(C)O[C@@H]21`: the GI50 is 1350 nM and the TGI was 3130 nM.

For the molecule `Cc1ccc(-c2c3c(N)nc(-c4ccncc4)nc3nc3c2c(C)nn3-c2ccccc2)cc1`, the GI50 is above 37500 nM and the TGI is above 37500 nM.
